Reference: patent US5198424A, “Functionally active selectin-derived peptides” (Board of Regents of the University of Oklahoma, priority 1992, dated 1993)
Like-named read-outs stand apart in the source and are kept apart here. Each block holds one substance with its values, some of them ahead of it. Ends that are not written are not given here.

What was measured:
GMP-140 [1] = molecular target: T1, GMP-140 (Homo sapiens, UniProt P16109); experiment: Neutrophil adhesion to purified GMP-140 immobilized on plastic wells (myeloperoxidase readout); format: cell-based; design: from tissue; host or cells: outdated human platelet packs (platelet lysate); details: for % Bound (neutrophils bound to immobilized GMP-140 in the presence of GMP-140-derived peptide): peptide 1.5 mM, cells bound with control C-terminal peptide 761-777 normalized to 100%
T1 sequence (P16109 42-830): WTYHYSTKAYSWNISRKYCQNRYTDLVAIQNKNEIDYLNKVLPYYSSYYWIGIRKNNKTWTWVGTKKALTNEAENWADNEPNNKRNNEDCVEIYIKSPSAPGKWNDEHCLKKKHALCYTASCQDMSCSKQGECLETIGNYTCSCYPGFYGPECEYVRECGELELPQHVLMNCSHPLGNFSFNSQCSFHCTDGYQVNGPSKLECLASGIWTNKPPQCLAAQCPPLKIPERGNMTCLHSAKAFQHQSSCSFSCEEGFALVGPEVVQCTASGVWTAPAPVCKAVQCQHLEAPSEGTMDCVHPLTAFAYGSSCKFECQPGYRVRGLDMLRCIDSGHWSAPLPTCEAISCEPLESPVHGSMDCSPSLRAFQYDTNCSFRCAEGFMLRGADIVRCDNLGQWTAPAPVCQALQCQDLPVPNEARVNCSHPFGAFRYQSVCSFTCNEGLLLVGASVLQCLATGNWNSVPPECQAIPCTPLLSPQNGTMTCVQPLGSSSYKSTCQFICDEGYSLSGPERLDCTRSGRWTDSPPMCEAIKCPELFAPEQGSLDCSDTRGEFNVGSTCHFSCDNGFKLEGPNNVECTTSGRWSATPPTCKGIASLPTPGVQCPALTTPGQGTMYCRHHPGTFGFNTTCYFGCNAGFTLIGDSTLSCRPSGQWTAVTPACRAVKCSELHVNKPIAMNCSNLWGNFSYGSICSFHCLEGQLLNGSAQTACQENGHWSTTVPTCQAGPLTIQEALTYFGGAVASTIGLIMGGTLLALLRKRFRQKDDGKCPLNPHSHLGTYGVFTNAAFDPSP
Description: Peptides were screened for their ability to inhibit neutrophil adhesion to purified GMP-140 immobilized on plastic wells, using the assay described by Geng, et al., Nature 343, 757-760 (1990).
Human neutrophils are isolated from heparinized whole blood by density gradient centrifugation on Mono-Poly resolving media, Flow Laboratories. Neutrophil suspensions are greater than 98% pure and greater than 95% viable by trypan blue exclusion. For adhesion assays, neutrophils are suspended at a concentration of 2×10^6 cells/ml in Hanks' balanced salt solution containing 1.26 mM Ca^2+ and 0.81 mM Mg^2+ (HBSS, Gibco) with 5 mg/ml human serum albumin (HBSS/HSA). Adhesion assays are conducted in triplicate in 96-well microtiter plates, Corning, incubated at 4° C. overnight with 50 microliters of various protein solutions.
GMP-140 is plated at 5 micrograms/ml and the control proteins: human serum albumin (Alb), platelet glycoprotein IIb/IIIa (IIb), von Willebrand factor (vWF), fibrinogen (FIB), thrombomodulin (TM), gelatin (GEL) or human serum (HS), are added at 50 micrograms/ml. All wells are blocked for 2 h at 22° C. with 300 microliters HBSS containing 10 mg/ml HSA, then washed three times with HBSS containing 0.1% Tween-20 and once with HBSS. Cells (2×10^5 per well were added to the wells and incubated at 22° C. for 20 min. The wells were then filled with HBSS/HSA, sealed with acetate tape (Dynatech), and centrifuged inverted at 150 g for 5 min. After discarding nonadherent cells and supernates, the contents of each well are solubilized with 200 microliters 0.5% hexadecyltrimethylammonium bromide, Sigma, in 50 mM potassium phosphate, pH 6.0, and assayed for myeloperoxidase activity, Ley, et al., Blood 73, 1324-1330 (1989). The number of cells bound was derived from a standard curve of myeloperoxidase activity versus numbers of cells. Under all assay conditions, the cells released less than 5% of total myeloperoxidase and lactate dehydrogenase. Results are presented in Table I. 100% adhesion is that seen in the presence of the C-terminal peptide (amino acid residues 761-777 of GMP-140) as a negative control; this value is the same as controls in which neither peptide nor antibody is added to the cells. Inhibition is read as a lower percent adhesion, so that a value of 5% mean that 95% of the specific adhesion was inhibited.
Peptides from the lectin-like domain of GMP-140 were assayed for their ability to inhibit adhesion of neutrophils to immobilized GMP-140 in the assay described in example 1. Concentrations tested ranged from 0.1 mM to 1.5 mM.

GMP-140 [2] = molecular target: T1, GMP-140; experiment: ELISA of binding of biotinylated monoclonal antibodies G1, G2, G3 to immobilized GMP-140 with soluble peptide; design: from tissue; host or cells: outdated human platelet packs (platelet lysate); details: peptide 1.5 mM; for remaining activity at 1500 µM: 2 h
Procedure: Based on competitive ELISAs with the purified protein, G1, G2, and G3 each recognize distinct or only partially overlapping epitopes. 1.5 mM peptide was added to biotinylated mAb at a concentration of 2.5 micrograms/ml, which were then added to the wells containing GMP-140, as described in example 1. Binding was measured by an ELISA with an avidin detection system.
The monoclonal antibodies were biotinylated as follows: to 0.5 ml of purified IgG antibody (1 mg/ml in PBS, pH 7.4) was added 50 μl of 3.2 mM N-hydroxysuccinimide biotin in dimethyl sulfoxide and 50 μl of 1 M NaHCO3. After a 2 hour incubation at room temperature in the dark, the reaction was stopped with 50 μl of 1 M NH4 Cl. The biotinylated antibody was then separated from other components by gel filtration on a PD-10 column equilibrated in PBS. The ELISA was performed as follows; all steps were performed at room temperature.
Biotinylated antibody (2.5 μg/ml) with or without 1.5 mM peptide was incubated with wells coated with GMP-140 as described in example 1. After a 2 hour incubation, the antibody was removed, the wells were washed, and 0.1 ml of horseradish peroxidase-conjugated stepavidin (Pierce), diluted 1:1000 in HBSS/HSA, was added for 30 min. The wells were then washed and 0.1 ml of peroxidase substrate (Pierce) was added for 15 min. The color reaction was read at 405 nm.

[3] = mAb G1 2.5 micrograms/ml, read-out: % Binding of Biotinylated MAbs G1
[4] = mAb G2 2.5 micrograms/ml, read-out: % Binding of Biotinylated MAbs G2
[5] = mAb G3 2.5 micrograms/ml, read-out: % Binding of Biotinylated MAbs G3

% Bound (neutrophils bound to immobilized GMP-140 in the presence of GMP-140-derived peptide) (GMP-140 [1]): 71%
Substance: NRYTDLVAI [21-29]

% Binding of Biotinylated MAbs G3 (GMP-140 [2]; mAb G3 2.5 micrograms/ml): 54%
% Bound (neutrophils bound to immobilized GMP-140 in the presence of GMP-140-derived peptide) (GMP-140 [1]): 12%
Substance: CQNRYTDLVAIQ [19-30]

% Bound (neutrophils bound to immobilized GMP-140 in the presence of GMP-140-derived peptide) (GMP-140 [1]): 92%
Substance: GTKKALTNE [64-72]

remaining activity at 1500 µM (GMP-140 [2]; [3]): 92%
remaining activity at 1500 µM (GMP-140 [2]; [4]): 92%
remaining activity at 1500 µM (GMP-140 [2]; [5]): 104%
Substance: YTASCQDMS [LECTIN/EGF 118-126]

remaining activity at 1500 µM (GMP-140 [2]; [3]): 107%
remaining activity at 1500 µM (GMP-140 [2]; [4]): 92%
remaining activity at 1500 µM (GMP-140 [2]; [5]): 104%
Substance: SKQGE [EGF 128-132]

% Bound (neutrophils bound to immobilized GMP-140 in the presence of GMP-140-derived peptide) (GMP-140 [1]): 108%
Substance: RKNNK [54-58]

% Bound (neutrophils bound to immobilized GMP-140 in the presence of GMP-140-derived peptide) (GMP-140 [1]): 13%
Substance: RKNNKTWTWV [54-63]

% Binding of Biotinylated MAbs G1 (GMP-140 [2]; mAb G1 2.5 micrograms/ml): 23%
% Binding of Biotinylated MAbs G2 (GMP-140 [2]; mAb G2 2.5 micrograms/ml): 26%
% Binding of Biotinylated MAbs G3 (GMP-140 [2]; mAb G3 2.5 micrograms/ml): 24%
% Bound (neutrophils bound to immobilized GMP-140 in the presence of GMP-140-derived peptide) (GMP-140 [1]): 5%
Substance: CQNRYTDLVAIQNKNE [19-34]

% Bound (neutrophils bound to immobilized GMP-140 in the presence of GMP-140-derived peptide) (GMP-140 [1]): 96%
Substance: NNKTW [56-60]

% Bound (neutrophils bound to immobilized GMP-140 in the presence of GMP-140-derived peptide) (GMP-140 [1]): 7%
Substance: YTDLVAIQ [23-30]

% Bound (neutrophils bound to immobilized GMP-140 in the presence of GMP-140-derived peptide) (GMP-140 [1]): 100%
Substance: AENWADNE [73-80]

% Bound (neutrophils bound to immobilized GMP-140 in the presence of GMP-140-derived peptide) (GMP-140 [1]): 6%
Substance: RYTDLVAIQ [22-30]

% Bound (neutrophils bound to immobilized GMP-140 in the presence of GMP-140-derived peptide) (GMP-140 [1]): 85%
Substance: NRYTDLVA [21-28]

adhesion of neutrophils to immobilized GMP-140 abolished (GMP-140 [1]; neutrophils treated with the protease): Greater than 70%
Substance: trypsin [reference compound]

% Bound (neutrophils bound to immobilized GMP-140 in the presence of GMP-140-derived peptide) (GMP-140 [1]): 65%
Substance: NRYTDLV [21-27]

remaining activity at 1500 µM (GMP-140 [2]; [3]): 106%
remaining activity at 1500 µM (GMP-140 [2]; [4]): 99%
remaining activity at 1500 µM (GMP-140 [2]; [5]): 104%
Substance: CQDDGK [SECRETORY 720-721/762-765, reference compound]

remaining activity at 1500 µM (GMP-140 [2]; [3]): 100%
remaining activity at 1500 µM (GMP-140 [2]; [4]): 100%
remaining activity at 1500 µM (GMP-140 [2]; [5]): 100%
% Bound (neutrophils bound to immobilized GMP-140 in the presence of GMP-140-derived peptide) (GMP-140 [1]): 100%
Substance: KDDGKCPLNPHSHLGTY [C-TERMINUS 761-777, reference compound]

remaining activity at 1500 µM (GMP-140 [2]; [3]): 100%
remaining activity at 1500 µM (GMP-140 [2]; [4]): 119%
remaining activity at 1500 µM (GMP-140 [2]; [5]): 104%
Substance: RKRFRQK [TRANSMEMBRANE 755-761, reference compound]

% Bound (neutrophils bound to immobilized GMP-140 in the presence of GMP-140-derived peptide) (GMP-140 [1]): 70%
Substance: KNNKTW [55-60]

% Bound (neutrophils bound to immobilized GMP-140 in the presence of GMP-140-derived peptide) (GMP-140 [1]): 102%
Substance: TWTWV [59-63]
